Values belong to the compound of their own block, whether it stands above or below them.
Assays:
Format in all cases: in vivo, human
LDL cholesterol [1] = experiment: Example 1: fasting LDL cholesterol after 24 weeks, OBT plus maraviroc vs OBT plus placebo
Method: (§1) The eligible patients were randomised into three groups based on the drug regimens they received.
(§2) Prior to the first dose (Day 1), a fasting assessment was made, in which the following was measured and taken as the baseline measurement: total cholesterol, HDL, LDL, triglycerides, glucose and glycosolated haemoglobin.
(§3) After 24 weeks of treatment or early termination, the same lipid parameters (in particular HDL levels) were measured again.

HDL cholesterol = experiment: Example 1: fasting HDL cholesterol after 24 weeks, OBT plus maraviroc vs OBT plus placebo; details: for Numbers of individuals with maximum % increase in HDL cholesterol in range 10 to >30 (sum, within sensitivity range of assay) / Numbers of individuals with maximum % increase in HDL cholesterol relative to baseline 0-5% / Numbers of individuals with maximum % increase in HDL cholesterol relative to baseline 5-<10% / Numbers of individuals with maximum % increase in HDL cholesterol relative to baseline 10-<20% / Numbers of individuals with maximum % increase in HDL cholesterol relative to baseline 20-<30% / Numbers of individuals with maximum % increase in HDL cholesterol relative to baseline <0% / Numbers of individuals with maximum % increase in HDL cholesterol relative to baseline ≧30% / Mean % Change in HDL / Mean % difference from Group1 (placebo) (95% Confidence Interval) in HDL: 24 weeks
Method: as §1, §2
HDL as part of a lipid profile was measured by Covance laboratories (Indianapolis, Ind.).
as §3

[2] = tested on: HIV-1 (CXCR4 using viral population); experiment: Example 1: HIV-1 RNA viral load reduction after 24 weeks; details: for Treatment difference in VL (95% confidence interval) / Mean VL reduction: 24 weeks
Text: The baseline HIV-1 RNA count was taken prior to the first dose (Day 1) and at multiple time points during the 24-week study period.

[3] = tested on: total cholesterol/HDL ratio; experiment: MERIT study: total cholesterol/HDL ratio; details: with Combivir; ARV-naive R5 HIV-1 patients; P=0.005 between groups
Text: (§4) The MERIT study design included a fasting metabolic assessment at baseline and at Weeks 24 and 48 or at early study discontinuation, to evaluate the fasted lipid values in the MERIT study and their potential effect on cardiovascular risk.
(§5) For a 50% smoking rate scenario (which approximates to the smoking rate seen in the DAD Study-Friis-Møller N, et al. N Engl J Med 2003; 349:1993-2003), smoking status (yes/no) was randomly imputed to the study population 500 times, by sampling from a binomial distribution with a probability of success of 0.5. Smoking status was assumed to remain constant for the duration of the study.

fasting lipid parameters = experiment: MERIT study: fasting lipoprotein profile (total cholesterol, HDL, LDL, triglycerides); details: for HDL cholesterol levels on treatment: 48 weeks
Text: as §4, §5

LDL cholesterol [4] = experiment: MERIT study: on-treatment fasting LDL cholesterol vs NCEP cutpoints; details: with Combivir
Text: as §4, §5

[5] = MERIT study: 10-year coronary heart disease risk by Framingham equation; details: for Absolute CHD 10-year risk (mean [SD]): Framingham equation, simulated smoking rate 50%, with Combivir
Text: as §5

[6] = Group 2: OBT plus maraviroc 150 or 300 mg po QD, N = 63
[7] = Group 3: OBT plus maraviroc 150 or 300 mg po BID, N = 61
[8] = Group 2: OBT plus maraviroc QD, n = 45
[9] = Group 3: OBT plus maraviroc BID, n = 48
[10] = patients already above threshold at baseline excluded, P<0.0001

Compound: (N-{(1S)-3-[3-isopropyl-5-methyl-4H-1,2,4-triazole-4-yl]-exo-8-azabicyclo[3.2.1]oct-8-yl}-1-phenylpropyl)-4,4-difluorocyclohexanecarboxamide) [maraviroc]
Numbers of individuals with maximum % increase in LDL cholesterol in range 10 to >30 (sum, within sensitivity range of assay) (LDL cholesterol [1]; [6]): 20 | Numbers of individuals with maximum % increase in LDL cholesterol relative to baseline 0-5% (LDL cholesterol [1]; [6]): 2 | Numbers of individuals with maximum % increase in LDL cholesterol relative to baseline 5-<10% (LDL cholesterol [1]; [6]): 5 | Numbers of individuals with maximum % increase in LDL cholesterol relative to baseline 10-<20% (LDL cholesterol [1]; [6]): 9 | Numbers of individuals with maximum % increase in LDL cholesterol relative to baseline 20-<30% (LDL cholesterol [1]; [6]): 4 | Numbers of individuals with maximum % increase in LDL cholesterol relative to baseline <0% (LDL cholesterol [1]; [6]): 11 | Numbers of individuals with maximum % increase in LDL cholesterol relative to baseline ≧30% (LDL cholesterol [1]; [6]): 7 | Numbers of individuals with maximum % increase in LDL cholesterol in range 10 to >30 (sum, within sensitivity range of assay) (LDL cholesterol [1]; [7]): 18 | Numbers of individuals with maximum % increase in LDL cholesterol relative to baseline 0-5% (LDL cholesterol [1]; [7]): 4 | Numbers of individuals with maximum % increase in LDL cholesterol relative to baseline 5-<10% (LDL cholesterol [1]; [7]): 1 | Numbers of individuals with maximum % increase in LDL cholesterol relative to baseline 10-<20% (LDL cholesterol [1]; [7]): 5 | Numbers of individuals with maximum % increase in LDL cholesterol relative to baseline 20-<30% (LDL cholesterol [1]; [7]): 3 | Numbers of individuals with maximum % increase in LDL cholesterol relative to baseline <0% (LDL cholesterol [1]; [7]): 18 | Numbers of individuals with maximum % increase in LDL cholesterol relative to baseline ≧30% (LDL cholesterol [1]; [7]): 10 | LDL levels after treatment compared with placebo (Group 1) (LDL cholesterol [1]; Table 1a): no increase over placebo | Increase in HDL-C levels following treatment (HDL cholesterol; 300 mg BID maraviroc, Tables 2a, 3a): clear dose-related increase | Numbers of individuals with maximum % increase in HDL cholesterol in range 10 to >30 (sum, within sensitivity range of assay) (HDL cholesterol; [6]): 18 | Numbers of individuals with maximum % increase in HDL cholesterol relative to baseline 0-5% (HDL cholesterol; [6]): 6 | Numbers of individuals with maximum % increase in HDL cholesterol relative to baseline 5-<10% (HDL cholesterol; [6]): 4 | Numbers of individuals with maximum % increase in HDL cholesterol relative to baseline 10-<20% (HDL cholesterol; [6]): 7 | Numbers of individuals with maximum % increase in HDL cholesterol relative to baseline 20-<30% (HDL cholesterol; [6]): 2 | Numbers of individuals with maximum % increase in HDL cholesterol relative to baseline <0% (HDL cholesterol; [6]): 17 | Numbers of individuals with maximum % increase in HDL cholesterol relative to baseline ≧30% (HDL cholesterol; [6]): 9 | Mean % Change in HDL (HDL cholesterol; [8]): 13.1% | Mean % difference from Group1 (placebo) (95% Confidence Interval) in HDL (HDL cholesterol; [8]): 10.8 (−3.4, 25.0) % | Numbers of individuals with maximum % increase in HDL cholesterol in range 10 to >30 (sum, within sensitivity range of assay) (HDL cholesterol; [7]): 28 | Numbers of individuals with maximum % increase in HDL cholesterol relative to baseline 0-5% (HDL cholesterol; [7]): 5 | Numbers of individuals with maximum % increase in HDL cholesterol relative to baseline 5-<10% (HDL cholesterol; [7]): 1 | Numbers of individuals with maximum % increase in HDL cholesterol relative to baseline 10-<20% (HDL cholesterol; [7]): 9 | Numbers of individuals with maximum % increase in HDL cholesterol relative to baseline 20-<30% (HDL cholesterol; [7]): 8 | Numbers of individuals with maximum % increase in HDL cholesterol relative to baseline <0% (HDL cholesterol; [7]): 14 | Numbers of individuals with maximum % increase in HDL cholesterol relative to baseline ≧30% (HDL cholesterol; [7]): 11 | Mean % Change in HDL (HDL cholesterol; [9]): 17.4% | Mean % difference from Group1 (placebo) (95% Confidence Interval) in HDL (HDL cholesterol; [9]): 15.1 (1.1, 29.1) % | Treatment difference in VL (95% confidence interval) ([2]; Group 2: OBT plus maraviroc QD vs Group 1 (placebo)): +0.06 log10 copies/mL | Mean VL reduction ([2]; Group 2: OBT plus maraviroc QD): −0.91 log10 copies/mL | Treatment difference in VL (95% confidence interval) ([2]; Group 3: OBT plus maraviroc BID vs Group 1 (placebo)): −0.23 log10 copies/mL | Mean VL reduction ([2]; Group 3: OBT plus maraviroc BID): −1.20 log10 copies/mL | Reduction in viral load (VL) in HIV patients with CXCR4 using viral population ([2]; after 24 weeks, vs Group 1): no statistically significant reduction | Median decrease in the total cholesterol/HDL ratio [3]: −0.54 | HDL cholesterol levels on treatment (fasting lipid parameters; with Combivir): improved

Number of patients who initiated LDL-lowering therapy during the study (LDL cholesterol [4]): six | Relation of change in LDL cholesterol to baseline LDL cholesterol (LDL cholesterol [4]; FIG. 2b): directly related | Patients with high on-treatment LDL cholesterol level (≧160 mg/dL) at both Week 24 and Week 48 (%) (LDL cholesterol [4]; P=0.007): 2.9% | Patients with high on-treatment LDL cholesterol level (≧160 mg/dL) at both Week 24 and Week 48 (n/N) (LDL cholesterol [4]; P=0.007): 10/343 | Patients who developed LDL cholesterol levels during the study that were ≧160 mg/dL (%) (LDL cholesterol [4]; [10]): 9% | Patients who developed LDL cholesterol levels during the study that were ≧160 mg/dL (n/N) (LDL cholesterol [4]; [10]): 31/343 | Percentage of patients with increases in total cholesterol and LDL cholesterol levels at some point after baseline to ≧130 mg/dL (fasting lipid parameters; efavirenz compared with maraviroc, P<0.0001, FIG. 3b): greater percentage | Median maximum changes from baseline in total cholesterol, HDL cholesterol, LDL cholesterol and triglyceride levels (fasting lipid parameters; efavirenz group compared with maraviroc group, with Combivir, FIG. 1b): significantly greater | Absolute CHD 10-year risk (mean [SD]) ([5]; Week 24): 3.0% | Absolute CHD 10-year risk (mean [SD]) ([5]; Week 48): 3.3% | Relative risk of having a CHD event within 10 years ([5]; efavirenz group vs maraviroc group at Week 24 and Week 48, smoking rate 50%, FIG. 5b): consistently higher
Compound: O=C1Nc2ccc(Cl)cc2[C@@](C#CC2CC2)(C(F)(F)F)O1 [efavirenz]
Median decrease in the total cholesterol/HDL ratio [3]: −0.43 | HDL cholesterol levels on treatment (fasting lipid parameters; with Combivir): improved
